Results: US20230391756A1, “NEW COMPOUND” (JANSSEN PHARMACEUTICA NV, priority 2020, published 2023)

Tests used:
TNF = experiment: PBMC assay: TNF cytokine level after LPS stimulation; format: cell-based; settings: human PBMCs, 100 ng/ml LPS for 6 hrs, MSD, read-out: TNFα EC50
Outline: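 Thawed healthy-donor human PBMCs, 7.5×10^4 cells per well, preincubated 30 min at 37° C, then stimulated with 100 ng/ml LPS (final) for 6 hrs. Supernatant TNF (and IL-1β) measured by MSD immunoassay.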

[1] = tested on: NLRP3 inflammasome pathway (IL-1β); experiment: PBMC assay: IL-1β release after LPS stimulation; format: cell-based; settings: human PBMCs, 100 ng/ml LPS for 6 hrs, MSD

Row | Structure (SMILES) | melting point [°C] | EC50 (TNF) [nM] | IC50 [1] [nM]
1 | CC(C)n1nc(CC(=O)Nc2nc3ccc(F)cc3n2C)c(=O)c2ccc(C(F)(F)F)cc21 [F-99] | 221.8 | > 20000 | > 20000
2 | CC(C)n1nc(CC(=O)Nc2nc3ccccc3n2C)c(=O)c2ccc(Br)cc21 [F-100] | 205.6 | > 20000 | 18200
3 | CC(C)n1nc(CC(=O)Nc2nc3cc(C#N)ccc3n2C)c(=O)c2ccc(C(F)(F)F)cc21 [F-101] | 243.8 | ~16500 | 15000
4 | CC(C)n1nc(CC(=O)Nc2nc3cc(Cl)ccc3o2)c(=O)c2ccc(Br)cc21 [F-104] | 199 | > 20000 | 2480
5 | CCn1nc(CC(=O)Nc2cn3cnnc3cn2)c(=O)c2ccc(C(F)(F)F)cc21 [F-106] | 280.2 | > 20000 | 1450
6 | O=C(Cc1nn(C2CC2)c2cc(C(F)(F)F)ccc2c1=O)Nc1cn2cnnc2cn1 [F-107] | 270.9 | > 20000 | 1140
7 | CC(F)(F)c1ccc2c(=O)c(CC(=O)Nc3cn4cnnc4cn3)nn(C3CC3)c2c1 [F-108] | 257.9 | > 20000 | 985
8 | CC(C)n1nc(CC(=O)Nc2nc3ccccc3o2)c(=O)c2ccc(C(F)(F)F)cc21 [F-110] | 187.4 | > 20000 | 900
9 | CC(C)n1nc(CC(=O)Nc2nc3ccccc3o2)c(=O)c2ccc(Br)cc21 [F-111] | 203.3 | > 20000 | 620
10 | O=C(Cc1nn(C2CC2)c2cc(Br)ccc2c1=O)Nc1cn2cnnc2cn1 [F-113] | 277.2 | > 20000 | 513
11 | CC(C)n1nc(CC(=O)Nc2nc3ncccn3n2)c(=O)c2ccc(C(F)(F)F)cc21 [F-114] | 259.7 | > 20000 | 330
12 | CC(C)n1nc(CC(=O)Nc2ccc3nnc(Cl)n3n2)c(=O)c2ccc(C(F)(F)F)cc21 [F-132] | 248.9 | > 20000 | 892
13 | CCn1nc(CC(=O)Nc2ccc3nncn3n2)c(=O)c2ccc(C3CCC3)cc21 [F-136] | 136.4 | 14100 | 1030
14 | O=C(Cc1nn(C2CC2)c2cc(C(F)(F)F)ccc2c1=O)Nc1ccc2nncn2n1 [F-139] | 215.7 | > 20000 | 210
15 | CCn1nc(CC(=O)Nc2ccc3nncn3n2)c(=O)c2ccc(C3CC3)cc21 [F-141] | 223 | 9770 | 120
16 | CC(C)n1nc(CC(=O)Nc2ccc3nncn3n2)c(=O)c2ccc(C(C)(F)F)cc21 [F-145] | 214.1 | 4320 | 77
17 | CCC(C)n1nc(CC(=O)Nc2ccc3nncn3n2)c(=O)c2ccc(C(F)(F)F)cc21 (stereo not drawn) [F-146] | 179.8 | 4670 | 142
18 | CC(C)n1nc(CC(=O)Nc2ccc3nncn3n2)c(=O)c2ccc(C(C)(C)F)cc21 [F-147] | 188.2 | 2340 | 51
19 | CC(C)n1nc(CC(=O)Nc2ccc3nncn3n2)c(=O)c2ccc(C3CCC3)cc21 [F-148] | 168.8 | 4580 | 513
